From US9765092B2, “Tricyclic piperidine compounds” (ACTELION PHARMACEUTICALS LTD, priority 2013, dated 2017)

Molecular target: human TPH1 (Homo sapiens (Human), UniProt P17752)
Experiment: Biochemical in vitro assay using fluorescence readout (TPH1 inhibition)
Conditions: human TPH1, fluorescence readout

Sequence of human TPH1 (P17752 whole entry): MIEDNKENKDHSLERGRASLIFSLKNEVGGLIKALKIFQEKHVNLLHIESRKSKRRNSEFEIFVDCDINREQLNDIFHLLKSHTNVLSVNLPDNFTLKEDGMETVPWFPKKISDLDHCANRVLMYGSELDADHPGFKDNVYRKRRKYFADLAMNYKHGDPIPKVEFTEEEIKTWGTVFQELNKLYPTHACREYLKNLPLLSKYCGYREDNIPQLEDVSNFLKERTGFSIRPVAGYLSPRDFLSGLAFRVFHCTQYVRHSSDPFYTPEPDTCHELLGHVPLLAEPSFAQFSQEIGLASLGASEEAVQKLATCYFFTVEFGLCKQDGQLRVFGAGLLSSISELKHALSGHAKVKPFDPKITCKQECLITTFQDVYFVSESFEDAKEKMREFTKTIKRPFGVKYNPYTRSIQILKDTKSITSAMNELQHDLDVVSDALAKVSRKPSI

Row | Structure (SMILES) | IC50
1 | O=C(COc1ccc(N2CCOCC2)cc1Cl)N1CC=C2N=C3SC=CN3C2[C@H]1c1ccc(Cl)cc1F (stereo partly drawn) [Example 6.4.2, 1-((5R)-5-(4-chloro-2-fluorophenyl)-4a,5-dihydro-thiazolo[2′,3′:2,3]imidazo[4,5-c]pyridin-6(7H)-yl)-2-(2-chloro-4-morpholinophenoxy)ethanone] | 4 nM
2 | Cc1cc(Cl)ccc1OCC(=O)N1CCc2nc3sccn3c2C1c1ccc(Cl)cc1F (centres unmarked) [Example 6.4.3, 1-(5-(4-chloro-2-fluorophenyl)-7,8-dihydrothiazolo-[2′,3′:2,3]imidazo[4,5-c]pyridin-6(5H)-yl)-2-(4-chloro-2-methylphenoxy)ethanone] | 6 nM
3 | O=C(COc1cccnc1Cl)N1CCc2nc3sccn3c2C1c1ccc(Cl)cc1F (centres unmarked) [Example 6.4.4, 1-(5-(4-chloro-2-fluorophenyl)-7,8-dihydrothiazolo-[2′,3′:2,3]imidazo[4,5-c]pyridin-6(5H)-yl)-2-((2-chloropyridin-3-yl)oxy)ethanone] | 13 nM
4 | O=C(COc1ccc(CN2CCOCC2)nc1Cl)N1CCc2nc3sccn3c2C1c1ccc(Cl)cc1F (centres unmarked) [Example 6.4.5, 1-(5-(4-chloro-2-fluorophenyl)-7,8-dihydrothiazolo-[2′,3′:2,3]imidazo[4,5-c]pyridin-6(5H)-yl)-2-((2-chloro-6-(morpholinomethyl)pyridin-3-yl)oxy)ethanone] | 7 nM
5 | CCc1ncccc1OCC(=O)N1CCc2nc3sccn3c2C1c1ccc(Cl)cc1F (centres unmarked) [Example 6.4.7, 1-(5-(4-chloro-2-fluorophenyl)-7,8-dihydrothiazolo-[2′,3′:2,3]imidazo[4,5-c]pyridin-6(5H)-yl)-2-((2-ethylpyridin-3-yl)oxy)ethanone] | 6 nM
6 | CS(=O)(=O)Nc1ccc(OCC(=O)N2CCc3nc4sccn4c3C2c2ccc(Cl)cc2F)c(Cl)n1 (centres unmarked) [Example 6.4.8, N-(6-chloro-5-(2-(5-(4-chloro-2-fluorophenyl)-7,8-dihydrothiazolo[2′,3′:2,3]imidazo[4,5-c]pyridin-6(5H)-yl)-2-oxoethoxy)pyridin-2-yl)methanesulfonamide] | 3 nM
7 | CCc1nc(C)ccc1OCC(=O)N1CCc2nc3sccn3c2C1c1c(C)noc1C (centres unmarked) [Example 6.5.1, 1-(5-(3,5-dimethylisoxazol-4-yl)-7,8-dihydrothiazolo-[2′,3′:2,3]imidazo[4,5-c]pyridin-6(5H)-yl)-2-((2-ethyl-6-methylpyridin-3-yl)oxy)ethanone] | 117 nM
8 | Cc1noc(C)c1C1c2c(nc3sccn23)CCN1C(=O)COc1ccc(Cl)cc1Cl (centres unmarked) [Example 6.5.2, 2-(2,4-dichlorophenoxy)-1-(5-(3,5-dimethylisoxazol-4-yl)-7,8-dihydrothiazolo[2′,3′:2,3]imidazo[4,5-c]pyridin-6(5H)-yl)ethanone] | 61 nM
9 | Cc1noc(C)c1C1c2c(nc3sccn23)CCN1C(=O)COc1ccc(C(F)(F)F)cc1Cl (centres unmarked) [Example 6.5.3, 2-(2-chloro-4-(trifluoromethyl)phenoxy)-1-(5-(3,5-di-methylisoxazol-4-yl)-7,8-dihydrothiazolo[2′,3′:2,3]-imidazo[4,5-c]pyridin-6(5H)-yl)ethanone] | 85 nM
10 | Cc1cc(Cl)ccc1OCC(=O)N1CCc2nc3sccn3c2C1c1c(C)noc1C (centres unmarked) [Example 6.5.4, 2-(4-chloro-2-methylphenoxy)-1-(5-(3,5-dimethylisoxazol-4-yl)-7,8-dihydrothiazolo[2′,3′:2,3]imidazo[4,5-c]-pyridin-6(5H)-yl)ethanone] | 27 nM
11 | CCc1cc(Cl)ccc1OCC(=O)N1CCc2nc3sccn3c2C1c1c(C)noc1C (centres unmarked) [Example 6.5.5, 2-(4-chloro-2-ethylphenoxy)-1-(5-(3,5-dimethylisoxazol-4-yl)-7,8-dihydrothiazolo[2′,3′:2,3]imidazo[4,5-c]pyridin-6(5H)-yl)ethanone] | 135 nM
12 | O=C(COc1ccc(N2CCOCC2)nc1Cl)N1CCc2nc3sccn3c2C1c1ccc(C2CC2)cc1F (centres unmarked) [Example 6.6.1, 2-((2-chloro-6-morpholinopyridin-3-yl)oxy)-1-(5-(4-cyclopropyl-2-fluorophenyl)-7,8-dihydrothiazolo-[2′,3′:2,3]imidazo[4,5-c]pyridin-6(5H)-yl)ethanone] | 4 nM
13 | O=C(COc1ccc(C(F)(F)F)nc1Cl)N1CCc2nc3sccn3c2C1c1ncc(C2CC2)cc1F (centres unmarked) [Example 6.7.1, 2-((2-chloro-6-(trifluoromethyl)pyridin-3-yl)oxy)-1-(5-(5-cyclopropyl-3-fluoropyridin-2-yl)-7,8-dihydrothiazolo-[2′,3′:2,3]imidazo[4,5-c]pyridin-6(5H)-yl)ethanone] | 11 nM
14 | N#Cc1ccc(OCC(=O)N2CCc3nc4sccn4c3C2c2ncc(C3CC3)cc2F)c(Cl)n1 (centres unmarked) [Example 6.7.2, 6-chloro-5-(2-(5-(5-cyclopropyl-3-fluoropyridin-2-yl)-7,8-dihydrothiazolo[2′,3′:2,3]imidazo[4,5-c]pyridin-6(5H)-yl)-2-oxoethoxy)picolinonitrile] | 17 nM
15 | O=C(COc1ccc(NS(=O)(=O)C2CC2)nc1Cl)N1CCc2nc3sccn3c2C1c1sccc1F (centres unmarked) [Example 6.8.1, N-(6-chloro-5-(2-(5-(3-fluorothiophen-2-yl)-7,8-dihydro-thiazolo[2′,3′:2,3]imidazo[4,5-c]pyridin-6(5H)-yl)-2-oxoethoxy)pyridin-2-yl)cyclopropanesulfonamide] | 15 nM
16 | CN(C)C(=O)c1ccc(OCC(=O)N2CCc3nc4sccn4c3C2c2sccc2F)c(Cl)n1 (centres unmarked) [Example 6.8.2, 6-chloro-5-(2-(5-(3-fluorothiophen-2-yl)-7,8-dihydro-thiazolo[2′,3′:2,3]imidazo[4,5-c]pyridin-6(5H)-yl)-2-oxoethoxy)-N,N-dimethylpicolinamide] | 5 nM
17 | CNC(=O)c1ccc(OCC(=O)N2CCc3nc4sccn4c3C2c2sccc2F)c(Cl)n1 (centres unmarked) [Example 6.8.3, 6-chloro-5-(2-(5-(3-fluorothiophen-2-yl)-7,8-dihydro-thiazolo[2′,3′:2,3]imidazo[4,5-c]pyridin-6(5H)-yl)-2-oxoethoxy)-N-methylpicolinamide] | 9 nM
18 | CS(=O)(=O)Nc1ccc(OCC(=O)N2CCc3nc4sccn4c3C2c2sccc2F)c(Cl)n1 (centres unmarked) [Example 6.8.4, N-(6-chloro-5-(2-(5-(3-fluorothiophen-2-yl)-7,8-dihydrothiazolo[2′,3′:2,3]imidazo[4,5-c]pyridin-6(5H)-yl)-2-oxoethoxy)pyridin-2-yl)methanesulfonamide] | 7 nM
19 | CS(=O)(=O)Nc1ccc(OCC(=O)N2CCc3nc4sccn4c3C2c2sccc2F)c(Cl)c1 (centres unmarked) [Example 6.8.5, N-(3-chloro-4-(2-(5-(3-fluorothiophen-2-yl)-7,8-dihydro-thiazolo[2′,3′:2,3]imidazo[4,5-c]pyridin-6(5H)-yl)-2-oxoethoxy)phenyl)methanesulfonamide] | 9 nM
20 | CN(C)C(=O)c1cc(F)c(C2c3c(nc4sccn34)CCN2C(=O)COc2ccc(NS(C)(=O)=O)cc2Cl)s1 (centres unmarked) [Example 6.9.1, 5-(6-(2-(2-chloro-4-(methylsulfonamido)phenoxy)-acetyl)-5,6,7,8-tetrahydrothiazolo[2′,3′:2,3]imidazo[4,5-c]pyridin-5-yl)-4-fluoro-N,N-dimethylthiophene-2-carboxamide] | 2 nM
21 | CN(C)C(=O)c1ccc(OCC(=O)N2CCc3nc4sccn4c3C2c2sc(C(=O)N(C)C)cc2F)c(Cl)n1 (centres unmarked) [Example 6.9.2, 6-chloro-5-(2-(5-(5-(dimethylcarbamoyl)-3-fluoro-thiophen-2-yl)-7,8-dihydrothiazolo[2′,3′:2,3]imidazo-[4,5-c]pyridin-6(5H)-yl)-2-oxoethoxy)-N,N-dimethylpicolinamide] | 5 nM
22 | Cc1ccc(C2c3c(nc4sccn34)CCN2C(=O)COc2ccc(Cl)cc2C)c(F)c1 (centres unmarked) [Example 6.10.1, 2-(4-chloro-2-methylphenoxy)-1-(5-(2-fluoro-4-methyl-phenyl)-7,8-dihydrothiazolo[2′,3′:2,3]imidazo[4,5-c]-pyridin-6(5H)-yl)ethanone] | 5 nM
23 | CCc1ncccc1OCC(=O)N1CCc2nc3sccn3c2C1c1ccc(C)cc1F (centres unmarked) [Example 6.10.2, 2-((2-ethylpyridin-3-yl)oxy)-1-(5-(2-fluoro-4-methyl-phenyl)-7,8-dihydrothiazolo[2′,3′:2,3]imidazo[4,5-c]-pyridin-6(5H)-yl)ethanone] | 7 nM
24 | Cc1ccc(C2c3c(nc4sccn34)CCN2C(=O)COc2cccnc2Cl)c(F)c1 (centres unmarked) [Example 6.10.3, 2-((2-chloropyridin-3-yl)oxy)-1-(5-(2-fluoro-4-methyl-phenyl)-7,8-dihydrothiazolo[2′,3′:2,3]imidazo[4,5-c]-pyridin-6(5H)-yl)ethanone] | 14 nM
25 | CCc1cc(F)ccc1OCC(=O)N1CCc2nc3sccn3c2C1c1ccc(C)cc1F (centres unmarked) [Example 6.10.4, 2-(2-ethyl-4-fluorophenoxy)-1-(5-(2-fluoro-4-methyl-phenyl)-7,8-dihydrothiazolo[2′,3′:2,3]imidazo[4,5-c]-pyridin-6(5H)-yl)ethanone] | 6 nM
26 | CCc1nc(C)ccc1OCC(=O)N1CCc2nc3sccn3c2C1c1ccc(C(F)(F)F)cc1F (centres unmarked) [Example 6.11.1, 2-((2-ethyl-6-methylpyridin-3-yl)oxy)-1-(5-(2-fluoro-4-(trifluoromethyl)phenyl)-7,8-dihydrothiazolo-[2′,3′:2,3]imidazo[4,5-c]pyridin-6(5H)-yl)ethanone] | 10 nM
27 | Cc1ccc(OCC(=O)N2CCc3nc4sccn4c3C2c2nc3ccccc3s2)cc1 (centres unmarked) [Example 6.12.1, 1-(5-(benzo[d]thiazol-2-yl)-7,8-dihydrothiazolo-[2′,3′:2,3]imidazo[4,5-c]pyridin-6(5H)-yl)-2-(p-tolyloxy)ethanone] | 26 nM
28 | Cc1ccccc1OCC(=O)N1CCc2nc3sccn3c2C1c1nc2ccccc2s1 (centres unmarked) [Example 6.12.2, 1-(5-(benzo[d]thiazol-2-yl)-7,8-dihydrothiazolo-[2′,3′:2,3]imidazo[4,5-c]pyridin-6(5H)-yl)-2-(o-tolyloxy)-ethanone] | 115 nM
29 | O=C(COc1ccc(Cl)cc1Cl)N1CCc2nc3sccn3c2C1c1nc2ccccc2s1 (centres unmarked) [Example 6.12.3, 1-(5-(benzo[d]thiazol-2-yl)-7,8-dihydrothiazolo-[2′,3′:2,3]imidazo[4,5-c]pyridin-6(5H)-yl)-2-(2,4-dichlorophenoxy)ethanone] | 20 nM
